Data as given in ChEMBL document CHEMBL4130462, “Natural isoflavone biochanin A as a template for the design of new and potent 3-phenylquinolone efflux inhibitors against Mycobacterium avium” (Eur J Med Chem, 2017).
Converted amounts (≈) assume the structure as drawn.

Key:
[1] = test system: Mycolicibacterium smegmatis; experiment: Antimycobacterial activity against Mycobacterium smegmatis str. MC2 155 assessed as reduction in bacterial viability incubated for 3 days by MTT assay; assay type: organism-based; details: 72 h
[2] = test system: Mycobacterium avium; experiment: Antimycobacterial activity against Mycobacterium avium isolate MAV2 assessed as reduction in bacterial viability incubated for 3 days by MTT assay; assay type: organism-based; details: 72 h
[3] = test system: Mycobacterium avium; experiment: Antimycobacterial activity against Mycobacterium avium isolate MAV3 assessed as reduction in bacterial viability incubated for 3 days by MTT assay; assay type: organism-based; details: 72 h
[4] = test system: Mycobacterium avium; details: in vivo, 72 h
Description: Antimycobacterial activity against Mycobacterium avium 104 mc'2 3 assessed as reduction in bacterial viability incubated for 3 days by MTT assay

[5] = test system: Mycobacterium avium; details: in vivo, 72 h; remark: listed apart in the source
Description: Antimycobacterial activity against Mycobacterium avium 104 mc'2 4 assessed as reduction in bacterial viability incubated for 3 days by MTT assay

[6] = test system: Mycobacterium avium; details: 104
Description: Inhibition of multidrug resistance efflux pump in Mycobacterium avium 104 assessed as potentiation of clarithromycin -induced antibacterial activity by measuring clarithromycin MIC at 1/2 MIC incubated for 3 days by MTT assay

[7] = test system: Mycobacterium avium; details: 104; remark: listed apart in the source
Description: Inhibition of multidrug resistance efflux pump in Mycobacterium avium 104 assessed as potentiation of clarithromycin -induced antibacterial activity by measuring clarithromycin MIC at 1/4 MIC incubated for 3 days by MTT assay

[8] = test system: Mycobacterium avium; details: 104 mc'2 3
[9] = test system: Mycobacterium avium; details: 104 mc'2 4
[10] = test system: Mycobacterium avium; details: 104 mc'2 4; remark: listed apart in the source
[11] = test system: Mycobacterium avium; details: isolate MAV1
[12] = test system: Mycobacterium avium; details: isolate MAV2
Description: Inhibition of multidrug resistance efflux pump in Mycobacterium avium isolate MAV2 assessed as potentiation of clarithromycin -induced antibacterial activity by measuring clarithromycin MIC at 1/4 MIC incubated for 3 days by MTT assay (Rvb = >1024 ug/ml)

[13] = test system: Mycobacterium avium; details: isolate MAV3
[14] = test system: Mycobacterium avium; details: isolate MAV3; remark: listed apart in the source
[15] = test system: Mycobacterium avium; details: isolate MAV4
Description: Inhibition of multidrug resistance efflux pump in Mycobacterium avium isolate MAV4 assessed as potentiation of clarithromycin -induced antibacterial activity by measuring clarithromycin MIC at 1/2 MIC incubated for 3 days by MTT assay

[16] = test system: Mycobacterium avium; details: isolate MAV4; remark: listed apart in the source
Description: Inhibition of multidrug resistance efflux pump in Mycobacterium avium isolate MAV4 assessed as potentiation of clarithromycin -induced antibacterial activity by measuring clarithromycin MIC at 1/4 MIC incubated for 3 days by MTT assay

[17] = test system: Mycobacterium avium subsp. avium ATCC 25291
Description: Inhibition of multidrug resistance efflux pump in Mycobacterium avium ATCC 25291 assessed as potentiation of clarithromycin -induced antibacterial activity by measuring clarithromycin MIC at 1/2 MIC incubated for 3 days by MTT assay

[18] = test system: Mycobacterium avium subsp. avium ATCC 25291; remark: listed apart in the source
Description: Inhibition of multidrug resistance efflux pump in Mycobacterium avium ATCC 25291 assessed as potentiation of clarithromycin -induced antibacterial activity by measuring clarithromycin MIC at 1/4 MIC incubated for 3 days by MTT assay

[19] = test system: Mycobacterium avium; details: 104; remark: listed apart in the source
[20] = test system: Mycobacterium avium; details: 104 mc'2 3; remark: listed apart in the source
[21] = test system: Mycobacterium avium; details: 104 mc'2 3; remark: listed apart in the source
[22] = test system: Mycobacterium avium; details: 104 mc'2 4; remark: listed apart in the source
[23] = test system: Mycobacterium avium; details: isolate MAV1; remark: listed apart in the source
[24] = test system: Mycobacterium avium; details: isolate MAV2; remark: listed apart in the source
[25] = test system: Mycobacterium avium; details: isolate MAV2; remark: listed apart in the source
[26] = test system: Mycobacterium avium; details: isolate MAV3; remark: listed apart in the source
[27] = test system: Mycobacterium avium; details: isolate MAV3; remark: listed apart in the source
[28] = test system: Mycobacterium avium subsp. avium ATCC 25291; remark: listed apart in the source
[29] = test system: Mycobacterium avium subsp. avium ATCC 25291; remark: listed apart in the source
[30] = test system: Mycobacterium avium; details: 104; remark: listed apart in the source
[31] = test system: Mycobacterium avium; details: 104 mc'2 3; remark: listed apart in the source
[32] = test system: Mycobacterium avium; details: 104 mc'2 4; remark: listed apart in the source
[33] = test system: Mycobacterium avium; details: isolate MAV1; remark: listed apart in the source
[34] = test system: Mycobacterium avium; details: isolate MAV2; remark: listed apart in the source
[35] = test system: Mycobacterium avium; details: isolate MAV3; remark: listed apart in the source
[36] = test system: Mycobacterium avium; details: isolate MAV3; remark: listed apart in the source
[37] = test system: Mycobacterium avium; details: isolate MAV4; remark: listed apart in the source
[38] = test system: Mycobacterium avium subsp. avium ATCC 25291; remark: listed apart in the source
[39] = test system: Mycobacterium avium; details: 104; remark: listed apart in the source
[40] = test system: Mycobacterium avium; details: 104; remark: listed apart in the source
[41] = test system: Mycobacterium avium; details: 104 mc'2 4; remark: listed apart in the source
[42] = test system: Mycobacterium avium; details: isolate MAV1; remark: listed apart in the source
Description: Inhibition of multidrug resistance efflux pump in Mycobacterium avium isolate MAV1 assessed as potentiation of ciprofloxacin-induced antibacterial activity by measuring ciprofloxacin MIC at 1/2 MIC incubated for 3 days by MTT assay (Rvb = 2 ug/ml)

[43] = test system: Mycobacterium avium; details: isolate MAV1; remark: listed apart in the source
Description: Inhibition of multidrug resistance efflux pump in Mycobacterium avium isolate MAV1 assessed as potentiation of ciprofloxacin-induced antibacterial activity by measuring ciprofloxacin MIC at 1/4 MIC incubated for 3 days by MTT assay

[44] = test system: Mycobacterium avium; details: isolate MAV2; remark: listed apart in the source
[45] = test system: Mycobacterium avium; details: isolate MAV2; remark: listed apart in the source
[46] = test system: Mycobacterium avium; details: isolate MAV3; remark: listed apart in the source
[47] = test system: Mycobacterium avium; details: isolate MAV4; remark: listed apart in the source
[48] = test system: Mycobacterium avium; details: 104; remark: listed apart in the source
[49] = test system: Mycobacterium avium; details: 104; remark: listed apart in the source
[50] = test system: Mycobacterium avium; details: 104 mc'2 3; remark: listed apart in the source
[51] = test system: Mycobacterium avium; details: 104 mc'2 3; remark: listed apart in the source
[52] = test system: Mycobacterium avium; details: 104 mc'2 4; remark: listed apart in the source
[53] = test system: Mycobacterium avium; details: isolate MAV1; remark: listed apart in the source
Description: Inhibition of multidrug resistance efflux pump in Mycobacterium avium isolate MAV1 assessed as potentiation of ofloxacin-induced antibacterial activity by measuring ofloxacin MIC at 1/4 MIC incubated for 3 days by MTT assay (Rvb = 4 ug/ml)

[54] = test system: Mycobacterium avium; details: isolate MAV2; remark: listed apart in the source
Description: Inhibition of multidrug resistance efflux pump in Mycobacterium avium isolate MAV2 assessed as potentiation of ofloxacin-induced antibacterial activity by measuring ofloxacin MIC at 1/2 MIC incubated for 3 days by MTT assay

[55] = test system: Mycobacterium avium; details: isolate MAV3; remark: listed apart in the source
[56] = test system: Mycobacterium avium; details: isolate MAV3; remark: listed apart in the source
[57] = test system: Mycobacterium avium; details: isolate MAV4; remark: listed apart in the source
[58] = test system: Mycobacterium avium; details: 104 mc'2 3; remark: listed apart in the source
[59] = test system: Mycobacterium avium; details: 104 mc'2 4; remark: listed apart in the source
[60] = test system: Mycobacterium avium; details: isolate MAV1; remark: listed apart in the source
[61] = test system: Mycobacterium avium; details: isolate MAV1; remark: listed apart in the source
[62] = test system: Mycobacterium avium; details: isolate MAV2; remark: listed apart in the source
[63] = test system: Mycobacterium avium; details: isolate MAV2; remark: listed apart in the source
[64] = test system: Mycobacterium avium; details: isolate MAV3; remark: listed apart in the source
[65] = test system: Mycobacterium avium; details: isolate MAV4; remark: listed apart in the source
[66] = test system: Mycobacterium avium subsp. avium ATCC 25291; remark: listed apart in the source
Description: Inhibition of multidrug resistance efflux pump in Mycobacterium avium ATCC 25291 assessed as potentiation of ethidium bromide-induced antibacterial activity by measuring ethidium bromide MIC at 1/4 MIC incubated for 3 days by MTT assay

SMILES: CN(C)CCCN1c2ccccc2Sc2ccc(Cl)cc21 [CHLORPROMAZINE]
- MIC [1]: 60 µg/mL (≈ 188 µM)
- MIC [2]: 30 µg/mL (≈ 94.1 µM)
- MIC [3]: 30 µg/mL (≈ 94.1 µM)
- MIC [4]: 30 µg/mL (≈ 94.1 µM)
- MIC [5]: 30 µg/mL (≈ 94.1 µM)
- MIC [6]: 1 µg/mL (≈ 3.14 µM)
- MIC [7]: 4 µg/mL (≈ 12.5 µM)
- MIC [8]: < 4 µg/mL
- MIC [9]: 512 µg/mL (≈ 1610 µM)
- MIC [10]: > 512 µg/mL
- MIC [11]: < 0.031 µg/mL
- MIC [12]: > 512 µg/mL
- MIC [13]: 0.5 µg/mL (≈ 1.57 µM)
- MIC [14]: 4 µg/mL (≈ 12.5 µM)
- MIC [15]: 0.5 µg/mL (≈ 1.57 µM)
- MIC [16]: 2 µg/mL (≈ 6.27 µM)
- MIC [17]: < 0.125 µg/mL
- MIC [18]: 1 µg/mL (≈ 3.14 µM)
- MIC [19]: < 4 µg/mL
- MIC [20]: < 4 µg/mL
- MIC [21]: > 512 µg/mL
- MIC [22]: > 512 µg/mL
- MIC [23]: < 4 µg/mL
- MIC [24]: > 512 µg/mL
- MIC [25]: > 512 µg/mL
- MIC [26]: 8 µg/mL (≈ 25.1 µM)
- MIC [27]: 128 µg/mL (≈ 401 µM)
- MIC [28]: < 1 µg/mL
- MIC [29]: 16 µg/mL (≈ 50.2 µM)
- MIC [30]: 8 µg/mL (≈ 25.1 µM)
- MIC [31]: > 512 µg/mL
- MIC [32]: 64 µg/mL (≈ 201 µM)
- MIC [33]: 32 µg/mL (≈ 100 µM)
- MIC [34]: > 512 µg/mL
- MIC [35]: 16 µg/mL (≈ 50.2 µM)
- MIC [36]: 64 µg/mL (≈ 201 µM)
- MIC [37]: 128 µg/mL (≈ 401 µM)
- MIC [38]: < 0.5 µg/mL
- MIC [39]: 0.5 µg/mL (≈ 1.57 µM)
- MIC [40]: 2 µg/mL (≈ 6.27 µM)
- MIC [41]: 4 µg/mL (≈ 12.5 µM)
- MIC [42]: < 0.031 µg/mL
- MIC [43]: 1 µg/mL (≈ 3.14 µM)
- MIC [44]: 2 µg/mL (≈ 6.27 µM)
- MIC [45]: 4 µg/mL (≈ 12.5 µM)
- MIC [46]: 4 µg/mL (≈ 12.5 µM)
- MIC [47]: 4 µg/mL (≈ 12.5 µM)
- MIC [48]: 1 µg/mL (≈ 3.14 µM)
- MIC [49]: 2 µg/mL (≈ 6.27 µM)
- MIC [50]: 1 µg/mL (≈ 3.14 µM)
- MIC [51]: 8 µg/mL (≈ 25.1 µM)
- MIC [52]: 1 µg/mL (≈ 3.14 µM)
- MIC [53]: 1 µg/mL (≈ 3.14 µM)
- MIC [54]: 1 µg/mL (≈ 3.14 µM)
- MIC [55]: 8 µg/mL (≈ 25.1 µM)
- MIC [56]: 8 µg/mL (≈ 25.1 µM)
- MIC [57]: 44 µg/mL (≈ 138 µM)
- MIC [58]: 6.25 µg/mL (≈ 19.6 µM)
- MIC [59]: 0.39 µg/mL (≈ 1.22 µM)
- MIC [60]: < 0.195 µg/mL
- MIC [61]: 1.56 µg/mL (≈ 4.89 µM)
- MIC [62]: 6.25 µg/mL (≈ 19.6 µM)
- MIC [63]: 12.5 µg/mL (≈ 39.2 µM)
- MIC [64]: 3.12 µg/mL (≈ 9.8 µM)
- MIC [65]: 3.12 µg/mL (≈ 9.8 µM)
- MIC [66]: 12.5 µg/mL (≈ 39.2 µM)
